Read-outs that look alike come from different tables or passages of the source.
How the values were obtained:
Huh-Luc-Neo cells = assay: Cell Titer-Glo Cell Viability Assay; format: cell-based, human; conditions: for Toxicity % Inhibition at 50 μM (2 doses): inhibition of cell viability at 50 μM, conditions identical to HCV Replicon RNA Assay; for Toxicity % Inhibition at 100 μM (1 dose): inhibition of cell viability at 100 μM, conditions identical to HCV Replicon Luciferase Assay (48 h)
Experimental: (§1) Day 2, Reagent Preparation and Luciferase Assay: The Bright-Glo Luciferase Assay Buffer (Promega) is thawed and equilibrated to room temperature prior to use. The lyophilized Bright-Glo Luciferase Assay Substrate is equilibrated to room temperature prior to use. 10 ml of Bright-Glo Luciferase Assay Buffer is transferred to 1 vial of Bright-Glo Luciferase Assay Substrate bottle and mixed by gently with a Vortex. 100 ul of Bright-Glo Luciferase Assay reagent (Bright-Glo Luciferase Assay Buffer+Bright-Glo Luciferase Assay Substrate Mixture) is added to each well. The well contents are mixed for 5 min. on an orbital shaker at room temperature to induce cell lysis and the luminescence is then measured using a luminometer. The data is analyzed and IC50s are determined using GraphPad Prism 4 software. Hits validated in the Replicon Luciferase assay have IC50s<8.0 μM and show <30% inhibition of Cell Viability at a compound concentration of 100 μM (Cell Titer Glow Assay, cell viability assay conditions identical to HCV Replicon Luciferase Assay conditions).
(§2) Day 3, Quantitative PCR Based Measurement of HCV RNA (Taqman Assay): Quantitative PCR analysis to measure HCV RNA expression from cDNA synthesized on Day 2 is performed using the ABI 9700 HT Sequence Detection System (Applied Biosystems) as previously described (Lohman et al, Science 285, 110-113, 1999). The data is analyzed and IC50s are determined using GraphPad Prism 4 software. Hits validated in the Replicon RNA Assay have IC50s<8.0 μM and show <30% inhibition of Cell Viability at a compound concentration of 50 μM (Cell Titer Glow Assay, cell viability assay conditions identical to HCV Replicon RNA Assay conditions).
Day 0, Cell Seeding and Compound Treatment: Huh-Luc-Neo Cells are seeded at 25,000/well in an opaque-walled 96 plate with Growth Medium (DMEM phenol red free+PS+2 mM glutamine; 100 ul/well).
Day 2, Reagent Preparation and Assay: The CellTiter-Glo Buffer is thawed and equilibrated to room temperature prior to use. The lyophilized CellTiter-Glo Substrate is equilibrated to room temperature prior to use. 10 ml of CellTiter-Glo Buffer is transferred to 1 vial of CellTiter-Glo Substrate and mixed by gently with a Vortex. 100 μl of CellTiter-Glo Assay reagent (CellTiter-Glo Buffer+CellTiter-Glo Substrate Mixture) is added to each well. The well contents are mixed for 5 min. on an orbital shaker at room temperature to induce cell lysis and the luminescence is then measured using a luminometer.

[1] = tested on: HCV RNA (HCV Replicon) in Huh-Luc-Neo cells; assay: HCV Replicon RNA Assay (Taqman quantitative PCR); format: cell-based; conditions: Hepatitis C virus, 48 h, 2 compound treatments over 48 h, no unit printed in table (b307 gives IC50s in μM)
Experimental: (§3) The identification of inhibitors of HCV replication and/or proliferation has been facilitated by the development of a cell based system to study HCV replication and assay for HCV inhibitors. Inhibition of HCV replication may be performed using the HCV Replicon Assay developed in the laboratories of Bartenschlager (Lohman et al, Science 285, 110-113, 1999) and Rice (Blight et al, Science 290, 1972-1974, 2000). The assay is performed using the Huh-Luc-Neo cell line (Lohman et al, Science 285, 110-113, 1999). Huh-Luc-Neo cells are a human hepatoma cell line (Huh-7) stably expressing a bi-cistronic subgenomic replicon containing the HCV IRES in which the […] of HCV had been deleted and replaced by a construct containing sequences coding for the firefly luciferase reporter gene, the neomycin selectable marker and the EMCV IRES to direct expression of a truncated HCV genome expressing the […] NS3, NS4A, NS4B, NS5A, and NS5B. HCV targets through which inhibitors could act to inhibit replication include the NS3 protease, the helicase/ATPase, NS5A, the NS5B-RNA dependent RNA polymerase, and the HCV IRES.
(§4) Expression of HCV IRES driven luciferase reporter activity and HCV RNA is measured to obtain indirect and direct measures of replication of HCV RNA respectively. Inhibitors of HCV replication and/or proliferation are determined by initially identifying molecules that inhibit expression of the HCV IRES driven luciferase reporter in this HCV Replicon Luciferase Assay. Cell viability assays and control cell based luciferase assays are then run on hits identified in the HCV Replicon Luciferase Assay to eliminate cytoxic compounds and non-specific compounds which act by inhibiting the luciferase enzyme.
(§5) Day 0, Cell Seeding and Compound Treatment: Huh-Luc-Neo Cells are seeded at 25,000/well in an opaque-walled 96 plate with Growth Medium (DMEM phenol red free+PS+2 mM glutamine; 100 μl/well). The compounds to be tested are added to the experimental wells (10 μl/well at 10× assay concentration) and the cells are then incubated (5% CO2, 37° C.).
Day 1, Media Change and Compound Treatment: 24 hours after the initial compound treatment the cell culture media is aspirated from the wells and fresh Growth Medium is added (DMEM phenol red free+PS+2 mM glutamine; 100 μl/well). The compounds to be tested are then added to the appropriate experimental wells (10 μl/well at 10× assay concentration) and the cells are then incubated (5% CO2, 37° C.) for an additional 24 hrs.
Day 2, RNA Isolation and cDNA Synthesis: The cells are washed with 1× Phosphate Buffered Saline (PBS) once.
as §2

[2] = tested on: HCV Replicon (HCV IRES driven luciferase reporter) in Huh-Luc-Neo cells; assay: HCV Replicon Luciferase Assay; format: cell-based; conditions: Hepatitis C virus, 48 h
Experimental: as §3, §4
as §5, with “C.) for 48 h.” for “C.).”
as §1

[3] = Huh-Luc-Neo cells, no unit printed in table (b301 gives IC50s in μM), read-out: Luciferase IC50
[4] = read-out: Luciferase IC50, Huh-Luc-Neo cells, 48 h, no unit printed in table (b301 gives IC50s in μM)

| SMILES | Toxicity % Inhibition at 50 μM (2 doses) (Huh-Luc-Neo cells) [%] | Toxicity % Inhibition at 100 μM (1 dose) (Huh-Luc-Neo cells) [%] | IC50 [1] [µM] | IC50 [2, 3] [µM] | IC50 ([2]; read-out: Luciferase IC50) [µM] | IC50 [2, 4] [µM] |
| --- | --- | --- | --- | --- | --- | --- |
| Cn1cc(C#CC(C)(C)C)c(-c2cc(C#Cc3ccc(Cl)cc3)ccc2O)n1 [VQ_34394] | 24.5 | 31.8 | 1.07 | 4.8 |  |  |
| Cn1cc(C#CC(C)(C)C)c(-c2cc(C#CCC3CCCCC3)ccc2O)n1 [VQ_34395] | 23.6 | 45.4 | 0.68 | 3.7 |  |  |
| Cn1cc(C#CC2CC2)c(-c2cc(Br)ccc2O)n1 [VQ_34432] | 8.2 | 45.5 | 0.82 | 11.5 |  |  |
| Cn1cc(C#CC(C)(C)C)c(-c2cc(-c3cccc(Cl)c3)ccc2O)n1 [VQ_35543] | 8.2 | 25.3 | 2.16 | 10.1 |  |  |
| Cn1cc(C#CC(C)(C)C)c(-c2cc(NC(=O)c3ccc(Cl)c(Cl)c3)ccc2O)n1 [VQ_35556] | 13.7 | 28.8 | 0.99 | 9.3 |  |  |
| Cn1cc(C#CC(C)(C)C)c(-c2cc(NC(=O)c3cccc(Cl)c3)ccc2O)n1 [VQ_35559] | 15.8 | 24.2 | 1.98 | 9.5 |  |  |
| CC(=O)c1ccc(N2CCN(C(=O)c3c(C#CC(C)(C)C)c(-c4cc(Cl)ccc4O)nn3C)CC2)cc1 [VQ_36649] | 12.1 | 7.3 | 0.4 | 9.7 |  |  |
| C=CCNc1ccc([N+](=O)[O-])cc1-c1nn(C)cc1C#CC(C)(C)C [VQ_36658] | 38.8 | 21.8 | 0.4 | 0.04 |  |  |
| Cn1cc(C#CC(C)(C)C)c(-c2cc([N+](=O)[O-])ccc2NCc2cc(F)cc(F)c2)n1 [VQ_36659] | 21.9 | 13.0 | 0.3 |  | 0.04 |  |
| Cn1cc(C#CC(C)(C)C)c(-c2cc([N+](=O)[O-])ccc2NCC(C)(C)CNc2ccc([N+](=O)[O-])cc2-c2nn(C)cc2C#CC(C)(C)C)n1 [VQ_36660] | 15.8 | 15.3 | 0.59 |  |  | 10.4 |
| Cn1cc(C#CC(C)(C)C)c(-c2cc([N+](=O)[O-])ccc2NC2CCCCC2)n1 [VQ_36661] | 14.4 | 9.5 | 0.55 | 0.63 |  |  |
| Cn1cc(C#CC(C)(C)C)c(-c2cc([N+](=O)[O-])ccc2NCc2c(F)cccc2F)n1 [VQ_36665] | 25.6 | 12.8 | 0.72 | 0.03 |  |  |
| CC(Nc1ccc([N+](=O)[O-])cc1-c1nn(C)cc1C#CC(C)(C)C)c1ccccc1 (stereo not shown) [VQ_36666] | 19.0 | 12.9 | 0.38 | 0.35 |  |  |
| Cc1cnc(Nc2ccc([N+](=O)[O-])cc2-c2nn(C)cc2C#CC(C)(C)C)s1 [VQ_36669] | 26.7 | 23.2 | 0.9 | 0.01 |  |  |
| Cn1cc(C#CC(C)(C)C)c(-c2cc([N+](=O)[O-])ccc2NCCCNc2ccc([N+](=O)[O-])cc2-c2nn(C)cc2C#CC(C)(C)C)n1 [VQ_36673] | 19.7 | 15.9 | 0.42 |  |  | 2.09 |
| Cn1cc(-c2ccc(O)c(-c3nn(C)cc3C#CC(C)(C)C)c2)cn1 [VQ_95538] | 6.1 | 24.3 | 1.35 | 9.8 |  |  |
